# Data published in patent US11987556B2, “Dual-functional compounds and methods of use” (BIOFRONT THERAPEUTICS (BEIJING) CO., LTD., priority 2020, dated 2024).
# Legend:
# human recombinant PDE4A = human recombinant PDE4A (Homo sapiens (Human), UniProt P27815); assay: PDE fluorescence polarization assay (BPS Bioscience kit), PDE4A; assay type: biochemical; conditions: FAM-cAMP substrate, 1 hr at room temperature; read-out: IC50 for inhibiting PDE4A
# Protocol: (§1) The inhibition of PDE4 (e.g., PDE4A, PDE4C) activity by the compounds (e.g., compound-1, compound-2, compound-3, compound-4, compound-5, and compound-6) are monitored using the PDE fluorescence polarization assay kits from BPS Bioscience (San Diego, USA) following the provided procedure. This assay is based on the selective binding of the fluorescent dye FAM-labelled AMP generated by the PDEs from the FAM-cAMP to its binding beads.
# (§2) Briefly, compounds (2.5 ul of different concentrations diluted in the assay buffer) were mixed with 12.5 uL of the FAM-cAMP substrate (200 nM in the assay buffer) in a 384-well plate, 10 ul of the human recombinant PDE4A (BPS, Catalog #60340) or PDE4C (BPS, Catalog #60384) was added. The plate was incubated for 1 hr at room temperature. 50 ul of the binding agent for FAM-AMP was added. The mixture was incubated at room temperature for 20 min. The amount of binding agent bound FAM-AMP was measured by the fluorescence polarization method on the Envision spectrometer. The potency (IC50 value, Table1) of exemplified compounds was calculated from the dose-response curve using the 4-parameter non-linear regression fitting routine.
# human recombinant PDE4C = human recombinant PDE4C (Homo sapiens (Human), UniProt Q08493); assay: PDE fluorescence polarization assay (BPS Bioscience kit), PDE4C; assay type: biochemical; conditions: FAM-cAMP substrate, 1 hr at room temperature; read-out: IC50 for inhibiting PDE4C
# Protocol: as §1, §2
# [1] = Blood level of compound-6 produced after oral dosing of compound-1 in mice; assay type: in vivo; conditions: 5 mg/kg
# Protocol: The exemplified compound-1 (formulated at 0.5 mg/mL in 0.5% carboxymethyl cellulose (CMC)/0.25% Tween-80 in water as a suspension) was dosed orally to 4 mice at 5 mg/kg. […] Approximately 200 ng/mL of compound-6 was detected in the blood at 15 min. Compound-6 blood level peaked at approximately 250 ng/mL between 1 to 2 hrs, and mostly cleared to around 25 ng/mL at 6 hr. […] This kinetic profile of compound-6 blood level provides the opportunities to treat diseases that are responsive to compound-6 treatment, beyond dosing compound-6 directly, such as reducing the expected high Cmax-caused side effects from directly dosing compound-6.
# Chain of human recombinant PDE4C (Q08493 whole entry): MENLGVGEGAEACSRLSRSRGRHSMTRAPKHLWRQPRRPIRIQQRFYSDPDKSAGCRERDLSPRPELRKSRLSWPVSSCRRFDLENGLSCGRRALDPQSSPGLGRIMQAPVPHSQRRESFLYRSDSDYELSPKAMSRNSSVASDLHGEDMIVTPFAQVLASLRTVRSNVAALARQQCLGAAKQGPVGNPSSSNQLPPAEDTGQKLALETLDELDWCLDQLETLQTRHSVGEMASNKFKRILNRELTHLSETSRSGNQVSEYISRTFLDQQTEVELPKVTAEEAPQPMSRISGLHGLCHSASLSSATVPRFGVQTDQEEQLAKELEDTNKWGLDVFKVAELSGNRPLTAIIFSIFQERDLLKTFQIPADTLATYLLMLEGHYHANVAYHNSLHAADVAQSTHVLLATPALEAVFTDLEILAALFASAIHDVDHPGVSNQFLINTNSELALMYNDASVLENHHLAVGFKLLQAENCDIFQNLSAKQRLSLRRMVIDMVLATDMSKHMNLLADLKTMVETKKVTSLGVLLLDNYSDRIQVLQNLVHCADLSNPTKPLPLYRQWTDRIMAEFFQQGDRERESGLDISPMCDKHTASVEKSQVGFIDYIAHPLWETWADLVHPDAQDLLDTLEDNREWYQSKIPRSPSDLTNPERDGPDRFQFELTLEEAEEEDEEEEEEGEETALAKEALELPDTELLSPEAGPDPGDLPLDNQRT
# Chain of human recombinant PDE4A (P27815 other isoform, or with tags, fused parts or gaps isoform P27815-4): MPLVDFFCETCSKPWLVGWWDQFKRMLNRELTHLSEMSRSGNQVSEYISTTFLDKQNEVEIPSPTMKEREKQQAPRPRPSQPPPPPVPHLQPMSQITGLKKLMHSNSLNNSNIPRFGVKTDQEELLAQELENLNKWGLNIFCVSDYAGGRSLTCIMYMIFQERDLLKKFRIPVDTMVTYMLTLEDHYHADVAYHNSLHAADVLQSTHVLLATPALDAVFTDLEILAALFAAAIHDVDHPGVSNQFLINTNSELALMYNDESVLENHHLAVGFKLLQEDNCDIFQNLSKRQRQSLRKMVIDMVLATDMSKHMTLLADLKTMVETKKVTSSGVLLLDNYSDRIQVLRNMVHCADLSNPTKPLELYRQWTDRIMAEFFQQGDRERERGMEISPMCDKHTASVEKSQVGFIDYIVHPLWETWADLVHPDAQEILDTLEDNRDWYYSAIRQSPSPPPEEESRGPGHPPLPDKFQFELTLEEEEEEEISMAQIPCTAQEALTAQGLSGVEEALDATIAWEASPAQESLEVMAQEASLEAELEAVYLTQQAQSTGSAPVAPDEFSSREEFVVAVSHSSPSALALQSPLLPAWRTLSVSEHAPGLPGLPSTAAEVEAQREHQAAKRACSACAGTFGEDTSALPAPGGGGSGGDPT
SMILES,IC50 (human recombinant PDE4A) [nM],IC50 (human recombinant PDE4C) [nM],"bioactivation after oral dosing, forming metabolite compound-6 [1]"
"CCOc1cc([C@@H](CS(C)(=O)=O)N2C(=O)c3cccc(NC(=O)COC(=O)C(C)(C)CO[N+](=O)[O-])c3C2=O)ccc1OC [compound-1, (S)-2-((2-(1-(3-ethoxy-4-methoxyphenyl)-2-(methylsulfonyl)ethyl)-1,3-dioxoisoindolin-4-yl)amino)-2-oxoethyl 2,2-dimethyl-3-(nitrooxy)propanoate]",178,2230,bioactivated rapidly
"CCOc1cc([C@@H](CS(C)(=O)=O)N2C(=O)c3cccc(NC(=O)COC(=O)C(C)(CO[N+](=O)[O-])CO[N+](=O)[O-])c3C2=O)ccc1OC [compound-2, (S)-2-((2-(1-(3-ethoxy-4-methoxyphenyl)-2-(methylsulfonyl)ethyl)-1,3-dioxoisoindolin-4-yl)amino)-2-oxoethyl 2-methyl-3-(nitrooxy)-2-((nitrooxy)methyl)propanoate]",308,2260,
"CCOc1cc([C@@H](CS(C)(=O)=O)N2C(=O)c3cccc(NC(=O)CO[C@H]4CO[C@H]5[C@@H]4OC[C@H]5O[N+](=O)[O-])c3C2=O)ccc1OC [compound-4, (3R,3aS,6S,6aR)-6-(2-((2-((S)-1-(3-ethoxy-4-methoxyphenyl)-2-(methylsulfonyl)ethyl)-1,3-dioxoisoindolin-4-yl)amino)-2-oxoethoxy)hexahydrofuro[3,2-b]furan-3-yl nitrate]",710,109,

# More lines, now with the values ahead:
IC50 (human recombinant PDE4A) [nM],IC50 (human recombinant PDE4C) [nM],"bioactivation after oral dosing, forming metabolite compound-6 [1]",SMILES
215,1020,,"CCOc1cc([C@@H](CS(C)(=O)=O)N2C(=O)c3cccc(NC(=O)CNC(=O)C(C)(C)CO[N+](=O)[O-])c3C2=O)ccc1OC [compound-3, (S)-3-((2-((2-(1-(3-ethoxy-4-methoxyphenyl)-2-(methylsulfonyl)ethyl)-1,3-dioxoisoindolin-4-yl)amino)-2-oxoethyl)amino)-2,2-dimethyl-3-oxopropyl nitrate]"
38,826,,"CCOc1cc([C@@H](CS(C)(=O)=O)N2C(=O)c3cccc(NC(=O)CNC(=O)O[C@H]4CO[C@H]5[C@@H]4OC[C@H]5O[N+](=O)[O-])c3C2=O)ccc1OC [compound-5, (3S,3aR,6R,6aS)-6-(nitrooxy)hexahydrofuro[3,2-b]furan-3-yl (2-((2-((S)-1-(3-ethoxy-4-methoxyphenyl)-2-(methylsulfonyl)ethyl)-1,3-dioxoisoindolin-4-yl)amino)-2-oxoethyl)carbamate]"
214,734,,"CCOc1cc([C@@H](CS(C)(=O)=O)N2C(=O)c3cccc(NC(=O)CO)c3C2=O)ccc1OC [compound-6, N-{2-[(1S)-1-(3-ethoxy-4-methoxyphenyl)-2-methanesulfonylethyl]-1,3-dioxoisoindol-4-yl}-2-hydroxyacetamide]"
